ChEMBL document CHEMBL1201862, “PubChem BioAssay data set” (2004)
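Following 48 hours of exposure in 96-well plates, responses at five concentrations were used to interpolate endpoints linearly. GI50 = concentration required for 50% inhibition of growth.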 Calls of active or inactive are those of the source. No stated cut-off is given here; in the data, active = GI50 up to about 1.1 µM and inactive = higher.

Columns and labels:
Assay in all cases: DTP human tumour cell line panel, 48 h
SK-MEL-28 = tested on: SK-MEL-28
T47D = tested on: T47D
MCF7 = tested on: MCF7
SN12C = tested on: SN12C
MDA-MB-435 = tested on: MDA-MB-435
COLO 205 = tested on: COLO 205
M14 = tested on: M14
SK-OV-3 = tested on: SK-OV-3
SK-MEL-5 = tested on: SK-MEL-5
SK-MEL-2 = tested on: SK-MEL-2
UO-31 = tested on: UO-31
SF-295 = tested on: SF-295
786-0 = tested on: 786-0
ACHN = tested on: ACHN
SF-268 = tested on: SF-268
NCI-H23 = tested on: NCI-H23
HOP-92 = tested on: HOP-92
SR = tested on: SR
HCC 2998 = tested on: HCC 2998
HL-60 = tested on: HL-60

Measured: GI50

O=C(O)c1nnsc1COCc1ccccc1
inactive: SK-MEL-28 > 100 µM | T47D > 100 µM | MCF7 > 100 µM | SN12C > 100 µM | MDA-MB-435 > 100 µM | COLO 205 > 100 µM | M14 > 100 µM | SK-OV-3 > 100 µM | SK-MEL-5 > 100 µM | SK-MEL-2 > 100 µM | UO-31 > 100 µM | SF-295 > 100 µM | 786-0 > 100 µM | ACHN > 100 µM | SF-268 > 100 µM | NCI-H23 > 100 µM | HOP-92 > 100 µM | SR > 100 µM

Cc1cc2c(C)cc(=O)[nH]c2cc1N
inactive: SK-MEL-28 > 100 µM | T47D > 100 µM | MCF7 67.5 µM | SN12C > 100 µM | MDA-MB-435 > 100 µM | COLO 205 60.1 µM | M14 > 100 µM | SK-MEL-5 > 100 µM | HCC 2998 61.4 µM | UO-31 > 100 µM | SF-295 > 100 µM | 786-0 > 100 µM | ACHN > 100 µM | NCI-H23 > 100 µM | HOP-92 > 100 µM | SR > 100 µM

Cc1ccc(/N=C2N=C(Cl)/C(=C\c3ccco3)N\2)cc1
inactive: SK-MEL-28 > 100 µM | T47D > 100 µM | MCF7 > 100 µM | SN12C > 100 µM | MDA-MB-435 > 100 µM | COLO 205 > 100 µM | M14 > 100 µM | SK-OV-3 > 100 µM | HL-60 > 100 µM | SK-MEL-5 > 100 µM | SK-MEL-2 > 100 µM | UO-31 > 100 µM | SF-295 > 100 µM | 786-0 > 100 µM | ACHN > 100 µM | SF-268 > 100 µM | NCI-H23 > 100 µM | HOP-92 > 100 µM | SR 96.8 µM

Cc1nc2ccc(S(=O)(=O)O)cc2c(=O)n1-c1ccc(C(=O)NN2C(=O)C(Cl)C2c2ccccc2O)cc1 (stereo not given)
inactive: SK-MEL-28 > 100 µM | T47D > 100 µM | MCF7 > 100 µM | SN12C > 100 µM | MDA-MB-435 > 100 µM | COLO 205 > 100 µM | M14 > 100 µM | SK-OV-3 > 100 µM | HL-60 > 100 µM | SK-MEL-5 > 100 µM | SK-MEL-2 > 100 µM | UO-31 > 100 µM | SF-295 > 100 µM | 786-0 > 100 µM | ACHN > 100 µM | SF-268 > 100 µM | NCI-H23 > 100 µM | HOP-92 > 100 µM | SR > 100 µM

CC(=O)N1CCN(CCCCN2c3ccccc3Sc3cc(N=[N+]=[N-])ccc32)CC1
inactive: SK-MEL-28 18.1 µM | T47D 3.65 µM | MCF7 14 µM | SN12C 15.6 µM | MDA-MB-435 15.6 µM | COLO 205 14.2 µM | HL-60 8.87 µM | HCC 2998 14.5 µM | UO-31 11.3 µM | SF-295 16.8 µM | 786-0 15.6 µM | ACHN 14.9 µM | SF-268 18.2 µM | NCI-H23 15.7 µM | SR 9.06 µM

C=C(C)C#CC(O)(C(=O)OC1CCN(C)CC1)C(C)C (stereo not given)
inactive: SK-MEL-28 > 100 µM | T47D > 100 µM | MCF7 > 100 µM | SN12C > 100 µM | MDA-MB-435 > 100 µM | COLO 205 > 100 µM | M14 > 100 µM | SK-OV-3 > 100 µM | HL-60 > 100 µM | SK-MEL-5 > 100 µM | HCC 2998 > 100 µM | UO-31 > 100 µM | SF-295 > 100 µM | 786-0 > 100 µM | ACHN > 100 µM | SF-268 > 100 µM | NCI-H23 > 100 µM | SR > 100 µM

COC(=O)c1c(C(=O)OC)c2c3ccccc3n(C)c2c2c1c1ccccc1n2C
inactive: SK-MEL-28 > 100 µM | T47D > 100 µM | MCF7 > 100 µM | SN12C > 100 µM | MDA-MB-435 > 100 µM | COLO 205 > 100 µM | M14 > 100 µM | SK-OV-3 50.2 µM | SK-MEL-5 74.5 µM | SK-MEL-2 46.8 µM | HCC 2998 > 100 µM | UO-31 16.2 µM | SF-295 91.4 µM | 786-0 34.2 µM | ACHN > 100 µM | NCI-H23 > 100 µM | HOP-92 > 100 µM | SR > 100 µM

CCN(C(=O)N[C@@H](CC(C)C)C(=O)NCC(=O)OC)c1ccccc1
inactive: SK-MEL-28 38.3 µM | T47D > 100 µM | MCF7 > 100 µM | SN12C > 100 µM | MDA-MB-435 > 100 µM | COLO 205 > 100 µM | M14 > 100 µM | SK-OV-3 > 100 µM | SK-MEL-5 75.5 µM | SK-MEL-2 61.4 µM | HCC 2998 > 100 µM | UO-31 > 100 µM | SF-295 > 100 µM | 786-0 > 100 µM | ACHN > 100 µM | NCI-H23 > 100 µM | HOP-92 > 100 µM | SR > 100 µM

O=S(=O)(O)c1c(Cl)cc(O)c2ncccc12
inactive: SK-MEL-28 > 100 µM | T47D > 100 µM | MCF7 > 100 µM | SN12C > 100 µM | MDA-MB-435 > 100 µM | COLO 205 > 100 µM | M14 > 100 µM | SK-MEL-5 > 100 µM | SK-MEL-2 > 100 µM | HCC 2998 > 100 µM | UO-31 > 100 µM | SF-295 > 100 µM | 786-0 > 100 µM | ACHN > 100 µM | NCI-H23 > 100 µM | HOP-92 > 100 µM | SR > 100 µM

CNc1ccccc1S(=O)(=O)c1ccccc1[N+](=O)[O-]
inactive: SK-MEL-28 91 µM | T47D 71.1 µM | MCF7 85.1 µM | SN12C 92.7 µM | MDA-MB-435 38.2 µM | COLO 205 > 100 µM | M14 52.7 µM | SK-OV-3 > 100 µM | HL-60 40 µM | SK-MEL-5 23 µM | SK-MEL-2 88.3 µM | HCC 2998 > 100 µM | UO-31 43.6 µM | SF-295 80.2 µM | 786-0 > 100 µM | ACHN 56.6 µM | SF-268 > 100 µM | NCI-H23 44.6 µM | SR > 100 µM

CN(C)c1ccc(/C=C2\CCCCCC2=O)cc1
inactive: SK-MEL-28 > 100 µM | T47D 38.5 µM | MCF7 > 100 µM | SN12C > 100 µM | MDA-MB-435 > 100 µM | COLO 205 > 100 µM | M14 79.1 µM | SK-OV-3 > 100 µM | HL-60 > 100 µM | SK-MEL-5 56 µM | SK-MEL-2 > 100 µM | HCC 2998 > 100 µM | UO-31 50.6 µM | SF-295 > 100 µM | 786-0 87.1 µM | ACHN 58.7 µM | SF-268 > 100 µM | SR > 100 µM
